Experimental data published in paper PMC3321071 (Bioorganic & medicinal chemistry letters, 2012).
pIC50: −log10 of the molar value.

test system: gp41-mediated cell–cell fusion; test: cell–cell fusion; type: cell-based, HIV-1; conditions: read-out: IC50 in CCF assay

Substance	pIC50
H2N-Asn-[Trp]-Trp-OH	5.10 to 5.22
H2N-Trp-[Trp]-Leu-OH	5.30
H2N-TyrMe-[Trp]-Trp-OH	5.10 to 5.22
